Measured values reported in DBAASP.
Converted amounts (≈) assume the structure as drawn.

Tests used:
Assay in all cases: ≥ marks a high value that may be exact or a test limit, other limits are often not marked, values filed in µg/mL are converted to µM
[1] = tested on: Staphylococcus aureus USA 300
[2] = tested on: Staphylococcus aureus NCTC 10788
[3] = tested on: Staphylococcus aureus NCTC 8325
[4] = tested on: Staphylococcus aureus ATCC 25923
[5] = tested on: Bacillus subtilis ATCC 23857
[6] = tested on: Pseudomonas aeruginosa ATCC 27853
[7] = tested on: Enterococcus faecalis ATCC 29212
[8] = tested on: Staphylococcus epidermidis ATCC 12228
[9] = tested on: Escherichia coli ATCC 25922
[10] = tested on: Acinetobacter baumannii ATCC 19606
[11] = tested on: Klebsiella pneumoniae ATCC 700603
[12] = tested on: Candida albicans ATCC 90028
[13] = tested on: Klebsiella pneumoniae ATCC 13883
[14] = tested on: Pseudomonas aeruginosa PAO1
[15] = tested on: Candida albicans ATCC 10231
Escherichia coli = tested on: Escherichia coli
[16] = tested on: Pseudomonas aeruginosa ATCC 9027
Micrococcus luteus = tested on: Micrococcus luteus
Staphylococcus aureus = tested on: Staphylococcus aureus
Bacillus subtilis 168 = tested on: Bacillus subtilis 168

| SMILES | MIC [4] [µM] | MIC [5] [µM] | MIC [9] [µM] | MIC [11] [µM] | also measured |
| --- | --- | --- | --- | --- | --- |
| CC[C@H](C)[C@H](NC(=O)[C@H](C)NC(=O)[C@H](CCCCN)NC(=O)[C@H](C)N)C(=O)N[C@H](C(=O)N[C@@H](CCCN=C(N)N)C(=O)N[C@H](C(=O)N[C@H](C(=O)N[C@@H](CCC(=O)O)C(=O)N[C@@H](CCC(N)=O)C(=O)N[C@@H](C)C(=O)N1CCC[C@H]1C(=O)N[C@@H](CCCCN)C(=O)N[C@H](C(=O)N[C@@H](C)C(=O)N[C@@H](CCCCN)C(=O)N[C@@H](C)C(=O)N[C@@H](CCCCN)C(=O)N[C@@H](CCCCN)C(=O)N[C@@H](CO)C(=O)O)[C@@H](C)O)[C@@H](C)CC)[C@@H](C)O)C(C)C [AKAIVRTIEQAPKTAKAKKS] | – | – | – | – | MIC [1]: ≥ 128 µM |
| CC[C@H](C)[C@H](NC(=O)[C@@H](NC(=O)[C@@H]1CCCN1C(=O)[C@H](CC(C)C)NC(=O)[C@@H](N)Cc1ccccc1)C(C)C)C(=O)N[C@@H](C)C(=O)NCC(=O)N[C@@H](CC(C)C)C(=O)N[C@@H](CC(C)C)C(=O)N[C@@H](CO)C(=O)N[C@@H](CCCCN)C(=O)N[C@@H](CC(C)C)C(=O)N[C@@H](Cc1ccccc1)C(N)=O [FLPVIAGLLSKLF] | – | – | – | – | MIC [2]: 8 µM (≈ 11.3 µg/mL); MIC [3]: 8 µM (≈ 11.3 µg/mL) |
| CC(C)C[C@H](NC(=O)[C@H](C)NC(=O)[C@@H](NC(=O)[C@H](CCCCN)NC(=O)[C@H](C)NC(=O)[C@H](CCCN=C(N)N)NC(=O)[C@H](CCCCN)NC(=O)[C@H](CC(C)C)NC(=O)[C@H](C)NC(=O)CN)[C@@H](C)O)C(N)=O [GALKRAKTAL] | > 512 | ≥ 512 | > 512 | > 512 | MIC [6]: > 512 µM; MIC [7]: > 512 µM; MIC [8]: > 512 µM; MIC [10]: > 512 µM |
| CC[C@H](C)[C@H](NC(=O)[C@H](CCCN=C(N)N)NC(=O)[C@H](CCCCN)NC(=O)[C@H](Cc1ccccc1)NC(=O)[C@H](Cc1ccccc1)NC(=O)CN)C(=O)N[C@@H](CCCN=C(N)N)C(=O)N[C@H](C(=O)N[C@@H](Cc1ccccc1)C(=O)N[C@@H](Cc1ccccc1)C(N)=O)[C@@H](C)O [GFFKRIRTFF] | 16 (≈ 21.1 µg/mL) | 16 (≈ 21.1 µg/mL) | 32 (≈ 42.2 µg/mL) | 32 (≈ 42.2 µg/mL) | MIC [6]: 4 µM (≈ 5.27 µg/mL); MIC [7]: 64 µM (≈ 84.3 µg/mL); MIC [8]: 64 µM (≈ 84.3 µg/mL); MIC [10]: 64 µM (≈ 84.3 µg/mL) |
| CC[C@H](C)[C@H](NC(=O)CNC(=O)[C@H](C)NC(=O)[C@@H](NC(=O)[C@@H](NC(=O)CN)[C@@H](C)CC)[C@@H](C)CC)C(=O)N[C@@H](C)C(=O)N[C@H](C(=O)N[C@@H](CCCCN)C(=O)N[C@H](C(=O)N[C@@H](CCCCN)C(=O)N[C@@H](CCCCN)C(N)=O)[C@@H](C)CC)[C@@H](C)CC [GIIAGIAIKIKK] | – | ≥ 32 | 64 (≈ 78.3 µg/mL) | – | – |
| CC[C@H](C)[C@H](NC(=O)CN)C(=O)N[C@H](C(=O)N[C@@H](CCCCN)C(=O)NCC(=O)N[C@H](C(=O)N[C@H](C(=O)N[C@@H](CCCCN)C(=O)N[C@@H](CCCCN)C(=O)N[C@H](C(=O)N[C@H](C(=O)N[C@@H](CCCCN)C(N)=O)[C@@H](C)CC)[C@@H](C)CC)[C@@H](C)CC)[C@@H](C)CC)[C@@H](C)CC [GIIKGIIKKIIK] | – | 8 (≈ 10.6 µg/mL) | 64 (≈ 84.7 µg/mL) | – | – |

More lines, main results first:

| MIC [4] [µM] | MIC [5] [µM] | MIC [9] [µM] | MIC [11] [µM] | SMILES | also measured |
| --- | --- | --- | --- | --- | --- |
| – | – | 13 (≈ 38.9 µg/mL) | – | CC[C@H](C)[C@H](NC(=O)[C@H](CCCCN)NC(=O)[C@H](CC(=O)O)NC(=O)[C@H](CC(C)C)NC(=O)[C@H](C)NC(=O)[C@H](CO)NC(=O)[C@H](C)NC(=O)[C@H](CC(C)C)NC(=O)[C@H](CC(C)C)NC(=O)[C@H](CC(N)=O)NC(=O)[C@H](CCCCN)NC(=O)[C@H](C)NC(=O)[C@H](C)NC(=O)CNC(=O)[C@H](CCCCN)NC(=O)[C@H](Cc1ccccc1)NC(=O)[C@@H](NC(=O)[C@H](CC(=O)O)NC(=O)[C@H](CCSC)NC(=O)[C@H](CC(C)C)NC(=O)CN)C(C)C)C(=O)N[C@@H](CCCN=C(N)N)C(=O)N[C@H]1CSSC[C@@H](C(=O)O)NC(=O)[C@H](CCCCN)NC(=O)[C@H]([C@@H](C)O)NC(=O)[C@H](C(C)C)NC(=O)[C@H](CCCCN)NC1=O [GLMDVFKGAAKNLLASALDKIRCKVTKC] | MIC [12]: ≥ 100 µM; MIC [3]: ≥ 100 µM |
| – | – | > 25 | – | CC(C)C[C@H](NC(=O)[C@H](CC(C)C)NC(=O)[C@H](CCCCN)NC(=O)CNC(=O)[C@H](CC(C)C)NC(=O)[C@H](CC(C)C)NC(=O)[C@H](CO)NC(=O)[C@H](CC(C)C)NC(=O)[C@H](CC(C)C)NC(=O)[C@H](CC(C)C)NC(=O)[C@H](CO)NC(=O)[C@H](CC(C)C)NC(=O)CN)C(N)=O [GLSLLLSLLGKLL] | MIC [1]: 1.6 µM (≈ 2.14 µg/mL); MIC [13]: 25 µM (≈ 33.5 µg/mL); MIC [14]: > 25 µM |
| – | ≥ 57.1 | – | – | CC(C)C[C@H](NC(=O)[C@H](CC(C)C)NC(=O)[C@H](CCCN=C(N)N)NC(=O)[C@H](CCCN=C(N)N)NC(=O)[C@H](CC(C)C)NC(=O)[C@@H](N)CC(C)C)C(=O)N[C@@H](CCCN=C(N)N)C(=O)N[C@@H](CCCN=C(N)N)C(N)=O [LLRRLLRR] | MIC [15]: 114 µM (≈ 125 µg/mL) |
| 16 (≈ 23.4 µg/mL) | 8 (≈ 11.7 µg/mL) | – | 16 (≈ 23.4 µg/mL) | CC[C@H](C)[C@H](NC(=O)[C@H](CCCCN)NC(=O)[C@H](CCCCN)NC(=O)[C@H](C)NC(=O)[C@@H](NC(=O)[C@H](C)NC(=O)[C@H](C)NC(=O)[C@H](CC(C)C)NC(=O)[C@H](C)NC(=O)[C@H](CCCCN)NC(=O)[C@H](CC(C)C)NC(=O)[C@H](CC(N)=O)NC(=O)[C@@H](N)CC(C)C)C(C)C)C(=O)N[C@@H](CC(C)C)C(N)=O [LNLKALAAVAKKIL] | MIC (Escherichia coli): 8 µM (≈ 11.7 µg/mL) |
| 16 (≈ 25.9 µg/mL) | 4 (≈ 6.48 µg/mL) | 8 (≈ 13 µg/mL) | 8 (≈ 13 µg/mL) | CC[C@H](C)[C@H](NC(=O)[C@H](CCCCN)NC(=O)[C@H](CCCCN)NC(=O)[C@H](C)NC(=O)[C@@H](NC(=O)[C@H](CCCCN)NC(=O)[C@H](CC(C)C)NC(=O)[C@H](CC(C)C)NC(=O)[C@H](CCCCN)NC(=O)[C@H](CCCCN)NC(=O)[C@H](CC(C)C)NC(=O)[C@H](CC(N)=O)NC(=O)[C@@H](N)CC(C)C)C(C)C)C(=O)N[C@@H](CC(C)C)C(N)=O [LNLKKLLKVAKKIL] | MIC [16]: 4 µM (≈ 6.48 µg/mL) |
| 4 (≈ 6.36 µg/mL) | 4 (≈ 6.36 µg/mL) | 4 (≈ 6.36 µg/mL) | 16 (≈ 25.5 µg/mL) | CC[C@H](C)[C@H](NC(=O)[C@H](CCCN=C(N)N)NC(=O)[C@H](CCCN=C(N)N)NC(=O)[C@H](C)NC(=O)[C@@H](NC(=O)[C@H](C)NC(=O)[C@H](CC(C)C)NC(=O)[C@H](CC(C)C)NC(=O)[C@H](C)NC(=O)[C@H](CCCN=C(N)N)NC(=O)[C@H](CC(C)C)NC(=O)[C@H](CC(N)=O)NC(=O)[C@@H](N)CC(C)C)C(C)C)C(=O)N[C@@H](CC(C)C)C(N)=O [LNLRALLAVARRIL] | MIC [16]: 8 µM (≈ 12.7 µg/mL) |
| – | – | 4.39 (≈ 8.3 µg/mL) | – | CC(C)C[C@H](NC(=O)[C@H](CC(=O)O)NC(=O)[C@H](CC(N)=O)NC(=O)[C@H](C)NC(=O)[C@H](CC(N)=O)NC(=O)[C@H](CC(=O)O)NC(=O)[C@@H](N)C(C)C)C(=O)N[C@@H](CC(C)C)C(=O)N[C@@H](CO)C(=O)N[C@@H](CCCCN)C(=O)N[C@H](C(=O)N[C@@H](CCCCN)C(=O)N[C@@H](CCCCN)C(=O)N[C@@H](CC(=O)O)C(=O)N[C@@H](CCCCN)C(=O)N[C@@H](CO)C(=O)N[C@@H](CC(=O)O)C(=O)O)C(C)C [VDNANDLLSKVKKDKSD] | MIC (Micrococcus luteus): 4.39 µM (≈ 8.3 µg/mL); MIC (Staphylococcus aureus): 8.26 µM (≈ 15.6 µg/mL); MIC (Bacillus subtilis 168): 1.11 µM (≈ 2.1 µg/mL) |
| – | – | 15.9 (≈ 31.2 µg/mL) | – | CC[C@H](C)[C@H](NC(=O)CNC(=O)[C@H](CC(C)C)NC(=O)[C@H](CO)NC(=O)[C@H](CCC(=O)O)NC(=O)[C@H](CCSC)NC(=O)[C@H](CCCCN)NC(=O)[C@H](C)NC(=O)[C@H](CCCCN)NC(=O)[C@H](CC(=O)O)NC(=O)[C@@H](NC(=O)[C@@H](N)C(C)C)[C@@H](C)CC)C(=O)N[C@H](C(=O)N[C@@H](CO)C(=O)N[C@@H](CCCN=C(N)N)C(=O)N[C@@H](CC(=O)O)C(=O)N[C@H](C(=O)N[C@H](C(=O)O)[C@@H](C)O)[C@@H](C)O)[C@@H](C)O [VIDKAKMESLGITSRDTT] | MIC (Micrococcus luteus): 7.94 µM (≈ 15.6 µg/mL); MIC (Staphylococcus aureus): 15.9 µM (≈ 31.2 µg/mL); MIC (Bacillus subtilis 168): 7.94 µM (≈ 15.6 µg/mL) |
